Test results reported in the supplement of paper PMC10307832.

Legend:
Assay in all cases: relative viability (nuclei count vs DMSO), 5 days (fraction); higher = more cells survive
Adavosertib + Bortezomib = compound: C=CCn1c(=O)c2cnc(Nc3ccc(N4CCN(C)CC4)cc3)nc2n1-c1cccc(C(C)(C)O)n1 [Adavosertib] + CC(C)C[C@H](NC(=O)[C@H](Cc1ccccc1)NC(=O)c1cnccn1)B(O)O [Bortezomib] (partner 0.002 µM)
Summary of the method: (§1)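 Lung cancer cell lines in 1536-well plates were dosed by pin tool the day after seeding, either with one drug alone or with a fixed anchor-drug dose plus five library-drug doses (not always all listed) in √10 steps. After 5 days, cells were fixed and their nuclei stained in one step (final 0.05% Triton X-100, 1% formaldehyde, 1 ug/ml Hoechst), then counted on 4× images. Relative viability is the nuclei count in treated wells divided by that in vehicle wells. Values are medians of duplicate plates.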

Nelarabine + Dasatinib = compound: COc1nc(N)nc2c1ncn2[C@@H]1O[C@H](CO)[C@@H](O)[C@@H]1O [Nelarabine] + Cc1nc(Nc2ncc(C(=O)Nc3c(C)cccc3Cl)s2)cc(N2CCN(CCO)CC2)n1 [Dasatinib] (partner 0.075 µM)
Summary of the method: as §1

Adavosertib + Linsitinib = compound: C=CCn1c(=O)c2cnc(Nc3ccc(N4CCN(C)CC4)cc3)nc2n1-c1cccc(C(C)(C)O)n1 [Adavosertib] + C[C@]1(O)C[C@@H](c2nc(-c3ccc4ccc(-c5ccccc5)nc4c3)c3c(N)nccn32)C1 [Linsitinib] (partner 1 µM)
Summary of the method: as §1

Nelarabine + Palbociclib = compound: COc1nc(N)nc2c1ncn2[C@@H]1O[C@H](CO)[C@@H](O)[C@@H]1O [Nelarabine] + CC(=O)c1c(C)c2cnc(Nc3ccc(N4CCNCC4)cn3)nc2n(C2CCCC2)c1=O [Palbociclib] (partner 0.5 µM)
Summary of the method: as §1

| Cell Line | relative viability (Adavosertib + Bortezomib; first compound 0.01 µM) | relative viability (Adavosertib + Bortezomib; first compound 0.03162 µM) | relative viability (Adavosertib + Bortezomib; first compound 0.1 µM) | relative viability (Adavosertib + Bortezomib; first compound 0.3162 µM) | relative viability (Nelarabine + Dasatinib; first compound 0.01 µM) | relative viability (Nelarabine + Dasatinib; first compound 0.03162 µM) | relative viability (Nelarabine + Dasatinib; first compound 0.1 µM) | relative viability (Nelarabine + Dasatinib; first compound 0.3162 µM) | relative viability (Nelarabine + Dasatinib; first compound 1 µM) | relative viability (Adavosertib + Linsitinib; first compound 0.01 µM) | relative viability (Adavosertib + Linsitinib; first compound 0.03162 µM) | relative viability (Adavosertib + Linsitinib; first compound 0.1 µM) | relative viability (Adavosertib + Linsitinib; first compound 0.3162 µM) | relative viability (Nelarabine + Palbociclib; first compound 0.01 µM) | relative viability (Nelarabine + Palbociclib; first compound 0.03162 µM) | relative viability (Nelarabine + Palbociclib; first compound 0.1 µM) | relative viability (Nelarabine + Palbociclib; first compound 0.3162 µM) | relative viability (Nelarabine + Palbociclib; first compound 1 µM) |
| --- | --- | --- | --- | --- | --- | --- | --- | --- | --- | --- | --- | --- | --- | --- | --- | --- | --- | --- |
| EKVX | 0.992 | 1.14 | 0.996 | 1.27 | 0.509 | 0.468 | 0.396 | 0.575 | 0.608 | 0.941 | 0.966 | 0.989 | 1.07 | 0.373 | 0.356 | 0.549 | 0.348 | 0.361 |
| BEN | 0.807 | 0.986 | 0.811 | 0.851 | 0.296 | 0.308 | 0.353 | 0.386 | 0.298 | 0.97 | 0.886 | 0.921 | 1.06 | 0.532 | 0.452 | 0.497 | 0.491 | 0.494 |
| 201T | 1.06 | 1.06 | 1.16 | 1.14 | 0.602 | 0.57 | 0.429 | 0.577 | 0.625 | 1.04 | 0.957 | 0.941 | 1.08 | 0.391 | 0.352 | 0.409 | 0.389 | 0.351 |
| SW 1573 | 1.21 | 1.07 | 1.16 | 1.16 | 0.422 | 0.453 | 0.394 | 0.485 | 0.494 | 0.919 | 0.864 | 0.911 | 0.886 | 0.465 | 0.382 | 0.41 | 0.399 | 0.338 |
| HCC-827 | 1.02 | 1.04 | 1.06 | 1.06 | 0.431 | 0.241 | 0.166 | 0.295 | 0.361 | 0.985 | 0.974 | 1.03 | 0.991 | 0.537 | 0.504 | 0.454 | 0.378 | 0.397 |
| NCI-H2228 | 0.875 | 0.941 | 0.818 | 0.358 | 0.725 | 0.481 | – | 0.629 | 0.559 | 0.629 | 0.623 | 0.76 | 0.395 | 1.04 | 0.538 | 0.599 | 0.937 | 0.792 |
| NCI-H2085 | 1.04 | 1.05 | 1.05 | 1.11 | 0.231 | 0.26 | 0.177 | 0.192 | 0.199 | 0.872 | 0.996 | 0.988 | 0.827 | 0.479 | 0.437 | 0.479 | 0.459 | 0.431 |
| NCI-H727 | 0.867 | 0.869 | 0.877 | 0.945 | 0.318 | 0.418 | 0.295 | 0.249 | 0.44 | 0.334 | 0.249 | 0.311 | 0.32 | 0.659 | 0.602 | 0.663 | 0.624 | 0.608 |
| PC-3 [JPC-3] | 0.808 | 0.812 | 0.853 | 0.793 | 1.03 | 1.01 | 0.938 | 1.04 | 0.97 | 0.903 | 0.935 | 0.929 | 0.985 | 0.562 | 0.544 | 0.524 | 0.526 | 0.533 |
| COR-L23 | 0.976 | 1.03 | 0.95 | 0.546 | 0.611 | 0.442 | 0.502 | 0.543 | 0.402 | 0.965 | 0.904 | 0.745 | 0.209 | 0.4 | 0.243 | 0.26 | 0.267 | 0.282 |
| RERF-LC-KJ | 1.14 | 1.02 | 1.19 | 1.28 | 0.824 | 0.884 | 0.716 | 0.808 | 0.761 | 0.925 | 0.921 | 0.848 | 0.796 | 1.13 | 1.17 | 1.09 | 1.17 | 0.97 |
| HCC-366 | 1.03 | 1.05 | 1.1 | 1.05 | 0.907 | 0.71 | 0.588 | 0.79 | 0.661 | 0.62 | 0.802 | 0.659 | 0.774 | 0.632 | 0.272 | 0.473 | 0.453 | 0.416 |
| NCI-H460 | 1.14 | 0.966 | 1.22 | 0.966 | 0.66 | 0.601 | 0.452 | 0.64 | 0.495 | 0.971 | 0.777 | 0.594 | 0.285 | 0.212 | 0.213 | 0.144 | 0.162 | 0.181 |
| NCI-H1915 | 0.93 | 0.967 | 0.987 | 0.972 | 0.337 | 0.36 | 0.281 | 0.296 | 0.364 | 1.11 | 1.12 | 1.14 | 1.17 | 0.598 | 0.531 | 0.533 | 0.522 | 0.525 |
| COR-L 105 | 0.984 | 0.719 | 0.855 | 0.627 | 0.339 | 0.402 | 0.259 | 0.351 | 0.319 | 0.818 | 1.13 | 0.976 | 0.906 | 0.383 | 0.354 | 0.43 | 0.385 | 0.421 |
| NCI-H441 | 0.38 | 0.761 | 0.414 | 0.354 | 0.598 | 0.516 | 0.43 | 0.596 | 0.784 | 0.552 | 0.5 | 0.496 | 0.329 | 0.194 | 0.188 | 0.202 | 0.192 | 0.192 |
| LCLC-103H | 1.03 | 1.1 | 1.05 | 1.08 | 0.458 | 0.45 | 0.342 | 0.499 | 0.471 | 1.07 | 1.02 | 1.14 | 1.07 | 0.523 | 0.421 | 0.466 | 0.486 | 0.504 |
| HARA | 0.981 | 1.17 | 1.13 | 0.938 | 0.279 | 0.339 | 0.236 | 0.329 | 0.436 | 0.907 | 1.06 | 0.98 | 0.97 | 0.202 | 0.253 | 0.228 | 0.273 | 0.287 |
